Counter-ions that a name gives are not always drawn.
Molecular target: T1, G1 APOL1 (Homo sapiens, UniProt O14791, I384M/S342G)
T1 construct: expressed in transfected cells
T1 sequence (O14791 28-398 S342G/I384M): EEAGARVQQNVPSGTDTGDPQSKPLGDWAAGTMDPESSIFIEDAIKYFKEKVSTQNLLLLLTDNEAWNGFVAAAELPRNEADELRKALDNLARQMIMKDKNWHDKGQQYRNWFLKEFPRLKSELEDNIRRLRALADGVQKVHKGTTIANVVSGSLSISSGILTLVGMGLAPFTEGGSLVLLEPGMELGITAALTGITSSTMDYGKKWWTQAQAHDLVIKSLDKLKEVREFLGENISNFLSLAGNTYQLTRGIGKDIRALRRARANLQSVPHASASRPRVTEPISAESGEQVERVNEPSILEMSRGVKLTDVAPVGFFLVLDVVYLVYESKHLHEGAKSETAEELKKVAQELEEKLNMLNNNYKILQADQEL
Experiment: Acute APOL1 Thallium Assay with inducible stable clones of HEK 293 cells
Format: cell-based
Settings: HEK 293 T-Rex inducible stable clone expressing G1 APOL1; read-out: Thallium Assay (IC50)
Summary of the method: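 APOL1 pore function was measured as thallium influx, detected by a Tl+-sensitive fluorescent dye loaded as AM ester, on a FLIPR Tetra after Tl+ addition. Cells were HEK T-Rex G1 APOL1 clone DC3.25, 26,000 per well, induced with tetracycline at plating in Opti-MEM assay medium.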

IC50 [nM]	SMILES
> 1000	CC(CO)(CO)NS(=O)(=O)NC[C@H]1C[C@H](c2c(-c3ccc(F)cc3)[nH]c3c(F)cc(F)cc32)C1 [Compound 365]
> 1000	CCS(=O)(=O)NCC(=O)N[C@H]1C[C@@H](c2c(-c3ccc(F)cc3)[nH]c3c(F)cc(F)cc32)C1 [Compound 43]
> 1000	CN(CC(=O)N[C@H]1C[C@@H](c2c(-c3ccc(F)cc3)[nH]c3c(F)cc(F)cc32)C1)S(C)(=O)=O [Compound 38]
> 1000	CCS(=O)(=O)N[C@H]1C[C@@H](c2c(-c3ccc(F)cc3)[nH]c3c(F)cc(F)cc32)C1 [Compound 82]
250 to 1000	O=C(N1CC(Cc2c(-c3ccc(F)cc3)[nH]c3c(F)cc(F)cc23)C1)C1(CO)CC1 [Compound 437, [3-[[5,7-difluoro-2-(4-fluorophenyl)-1H-indol-3-yl]methyl]azetidin-1-yl]-[1-(hydroxymethyl)cyclopropyl]methanone (Trifluoroacetate salt)]
> 1000	O=C1CCC[C@@H](C(=O)NC[C@H]2C[C@H](c3c(-c4ccc(F)cc4)[nH]c4c(F)cc(F)cc43)C2)N1 [Compound 253]
> 1000	CC(C)(C)OC(=O)NC1(C(=O)NC[C@H]2C[C@H](c3c(-c4ccc(F)cc4)[nH]c4c(F)cc(F)cc43)C2)COC1 [Compound 311]
250 to 1000	O=C(NC[C@H]1C[C@H](c2c(-c3ccc(F)cc3)[nH]c3c(F)cc(F)cc32)C1)C1(O)COC1 [Compound 221]
> 1000	NC(=O)C1(C(=O)NC[C@H]2C[C@H](c3c(-c4ccc(F)cc4)[nH]c4c(F)cc(F)cc43)C2)CC1 [Compound 452]
> 1000	C[C@@H](NC(=O)OC(C)(C)C)C(=O)NC[C@H]1C[C@H](c2c(-c3ccc(F)cc3)[nH]c3c(F)cc(F)cc32)C1 [Compound 295]
> 1000	NCC(O)CNCC1CC(c2c(-c3ccc(F)cc3)[nH]c3c(F)cc(F)cc23)C1 (centres unmarked) [Compound 403]
> 1000	CN(C)CC(=O)N[C@H]1C[C@H](c2c(-c3ccc(F)cc3)[nH]c3c(F)cc(F)cc32)C1 [Compound 91]
> 1000	O=C(CCN1CCCCC1)NC[C@H]1C[C@@H](c2c(-c3ccc(F)cc3)[nH]c3c(F)cc(F)cc32)C1 [Compound 293]
250 to 1000	CC1(C(=O)N[C@H]2C[C@H](c3c(-c4ccc(F)cc4)[nH]c4c(F)cc(F)cc43)C2)CC(=O)C1 [Compound 94]
< 250	N[C@@H](CO)C(=O)NC[C@H]1C[C@H](c2c(-c3ccc(F)cc3)[nH]c3c(F)cc(F)cc32)C1 [Compound 194]
> 1000	CN1CC(NS(=O)(=O)NC[C@H]2C[C@H](c3c(-c4ccc(F)cc4)[nH]c4c(F)cc(F)cc43)C2)CC1=O (some centres unmarked) [Compound 336]
> 1000	CC1(CO)CCN1S(=O)(=O)NC[C@H]1C[C@H](c2c(-c3ccc(F)cc3)[nH]c3c(F)cc(F)cc32)C1 (mixture of isomers) [Compound 364]
> 1000	CC(F)(F)C(=O)NC[C@H]1C[C@@H](c2c(-c3ccc(F)cc3)[nH]c3c(F)cc(F)cc32)C1 [Compound 266]
< 250	O=C(NC[C@H]1C[C@H](c2c(-c3ccc(F)cc3)[nH]c3c(F)cc(F)cc32)C1)[C@@H]1CCN1 [Compound 198]
> 1000	C[C@@H](O)CNS(=O)(=O)NC[C@H]1C[C@H](c2c(-c3ccc(F)cc3)[nH]c3c(F)cc(F)cc32)C1 [Compound 351]
> 1000	CN1CCC(CC(=O)NC[C@H]2C[C@@H](c3c(-c4ccc(F)cc4)[nH]c4c(F)cc(F)cc43)C2)CC1 [Compound 239]
250 to 1000	Cc1cc(-c2[nH]c3c(F)cc(F)cc3c2C2CC(N)C2)ccc1F (mixture of isomers) [Compound 11, 3-[5,7-difluoro-2-(4-fluoro-3-methyl-phenyl)-1H-indol-3-yl]cyclobutanamine]
> 1000	N#CCS(=O)(=O)N[C@H]1C[C@@H](c2c(-c3ccc(F)cc3)[nH]c3c(F)cc(F)cc32)C1 [Compound 87]
> 1000	O=C(CCN1CCCC1)N[C@H]1C[C@@H](c2c(-c3ccc(F)cc3)[nH]c3c(F)cc(F)cc32)C1 [Compound 44]
250 to 1000	O=C(CO)NC[C@H]1C[C@@H](c2c(-c3ccc(F)cc3)[nH]c3c(F)cc(F)cc32)C1 [Compound 210]
250 to 1000	CNC(=O)c1noc(CNS(=O)(=O)NC[C@H]2C[C@H](c3c(-c4ccc(F)cc4)[nH]c4c(F)cc(F)cc43)C2)n1 [Compound 337]
250 to 1000	O=C(N[C@H]1C[C@@H](c2c(-c3ccc(F)cc3)[nH]c3c(F)cc(F)cc32)C1)C1(O)CC1 [Compound 76]
250 to 1000	O=C1CC(NC[C@H]2C[C@H](c3c(-c4ccc(F)cc4)[nH]c4c(F)cc(F)cc43)C2)C(=O)N1 (some centres unmarked) [Compound 422, 3-((((1r,3r)-3-(5,7-difluoro-2-(4-fluorophenyl)-1H-indol-3-yl)cyclobutyl)methyl)amino)pyrrolidine-2,5-dione]

IC50 [nM]	SMILES
> 1000	Fc1ccc(-c2[nH]c3c(F)cc(F)cc3c2C2CC(CNC3CCOC3)C2)cc1 (centres unmarked) [Compound 396]
> 1000	NC(=O)CC(=O)NC1CC(Cc2c(-c3ccc(F)cc3)[nH]c3c(F)cc(F)cc23)C1 (centres unmarked) [Compound 165]
> 1000	CC(C(=O)NC[C@H]1C[C@@H](c2c(-c3ccc(F)cc3)[nH]c3c(F)cc(F)cc32)C1)N(C)C (mixture of isomers) [Compound 281]
> 1000	O=C(CC1(O)CCCCC1)N[C@H]1C[C@@H](c2c(-c3ccc(F)cc3)[nH]c3c(F)cc(F)cc32)C1 [Compound 47]
> 1000	O=C(N[C@H]1C[C@H](Cc2c(-c3ccc(F)cc3)[nH]c3c(F)cc(F)cc23)C1)C1(CO)CC1 [Compound 159, N-[3-[[5,7-difluoro-2-(4-fluorophenyl)-1H-indol-3-yl]methyl]cyclobutyl]-1-(hydroxymethyl)cyclopropanecarboxamide]
> 1000	C[C@@]1(C(=O)NC[C@H]2C[C@H](c3c(-c4ccc(F)cc4)[nH]c4c(F)cc(F)cc43)C2)CCCN1 [Compound 289]
> 1000	CO[C@H](C)C(=O)NC[C@H]1C[C@H](c2c(-c3ccc(F)cc3)[nH]c3c(F)cc(F)cc32)C1 [Compound 240]
250 to 1000	O=S(=O)(NC[C@H]1C[C@H](c2c(-c3ccc(F)cc3)[nH]c3c(F)cc(F)cc32)C1)c1c[nH]cn1 [Compound 415]
< 250	O=S(=O)(CCO)N[C@H]1C[C@H](c2c(-c3ccc(F)cc3)[nH]c3c(F)cc(F)cc32)C1 [Compound 146]
> 1000	NC(=O)[C@H](CO)NS(=O)(=O)NC[C@H]1C[C@H](c2c(-c3ccc(F)cc3)[nH]c3c(F)cc(F)cc32)C1 [Compound 353]
> 1000	O=C(NC[C@H]1C[C@@H](c2c(-c3ccc(F)cc3)[nH]c3c(F)cc(F)cc32)C1)c1cn[nH]c1 [Compound 317]
250 to 1000	O[C@H]1C[C@H](NCC2CC(c3c(-c4ccc(F)cc4)[nH]c4c(F)cc(F)cc34)C2)C1 (some centres unmarked) [Compound 387]
> 1000	O=C(NC[C@H]1C[C@H](c2c(-c3ccc(F)cc3)[nH]c3c(F)cc(F)cc32)C1)c1ccn[nH]1 [Compound 292]
> 1000	CC(C)(C)OC(=O)NCCNCC1CC(c2c(-c3ccc(F)cc3)[nH]c3c(F)cc(F)cc23)C1 (centres unmarked) [Compound 401]
250 to 1000	O=S(=O)(NCCc1cn[nH]c1)NC[C@H]1C[C@H](c2c(-c3ccc(F)cc3)[nH]c3c(F)cc(F)cc32)C1 [Compound 369]
> 1000	CC(CC(=O)N[C@H]1C[C@@H](c2c(-c3ccc(F)cc3)[nH]c3c(F)cc(F)cc32)C1)N1CCOCC1 (mixture of isomers) [Compound 36]
> 1000	O=C(NC[C@H]1C[C@H](c2c(-c3ccc(F)cc3)[nH]c3c(F)cc(F)cc32)C1)c1n[nH]c(=O)[nH]1 [Compound 290]
> 1000	O=C(NC[C@H]1C[C@H](c2c(-c3ccc(F)cc3)[nH]c3c(F)cc(F)cc32)C1)[C@H]1COCCN1 [Compound 257]
> 1000	O=C1NCC[C@@H]1NCC1CC(c2c(-c3ccc(F)cc3)[nH]c3c(F)cc(F)cc23)C1 (some centres unmarked) [Compound 400]
> 1000	CC1(C(=O)NC2CC(Cc3c(-c4ccc(F)cc4)[nH]c4c(F)cc(F)cc34)C2)CCNC1=O (mixture of isomers) [Compound 169]
> 1000	Cc1nccn1CC(=O)NC[C@H]1C[C@@H](c2c(-c3ccc(F)cc3)[nH]c3c(F)cc(F)cc32)C1 [Compound 321]
250 to 1000	Fc1ccc(-c2[nH]c3c(F)cc(F)cc3c2C2CC(CNCC(F)F)C2)cc1 (centres unmarked) [Compound 379]
> 1000	CS(=O)(=O)NCC(=O)NC[C@H]1C[C@@H](c2c(-c3ccc(F)cc3)[nH]c3c(F)cc(F)cc32)C1 [Compound 271]
< 250	N[C@H](C(=O)NC[C@H]1C[C@H](c2c(-c3ccc(F)cc3)[nH]c3c(F)cc(F)cc32)C1)C1CC1 [Compound 196]
> 1000	NS(=O)(=O)CCCC(=O)NC[C@H]1C[C@@H](c2c(-c3ccc(F)cc3)[nH]c3c(F)cc(F)cc32)C1 [Compound 280]
250 to 1000	O=C(N1CC(c2c(-c3ccc(F)cc3)[nH]c3c(F)cc(F)cc23)C1)C1(O)CC1 [Compound 442, (3-(5,7-difluoro-2-(4-fluorophenyl)-1H-indol-3-yl)azetidin-1-yl)(1-hydroxycyclopropyl)methanone]
> 1000	O=C1NCCC1CNS(=O)(=O)NC[C@H]1C[C@H](c2c(-c3ccc(F)cc3)[nH]c3c(F)cc(F)cc32)C1 (some centres unmarked) [Compound 345]

SMILES	IC50 [nM]
NC1CC(c2c(-c3ccc(OC(F)F)cc3)[nH]c3c(F)cc(F)cc23)C1 (centres unmarked) [Compound 9]	< 250

Reference: patent US12281102B2, “Inhibitors of APOL1 and methods of using same” (Vertex Pharmaceuticals Incorporated, priority 2020, dated 2025)
